Test: Rhodamine release from chemically cross-linked poly(dimethyl siloxane) microcapsules (fluorescence photomicrographs, confocal microscopy)
Format: physicochemical
Source text: FIGS. 18(a)-(c). A series of photomicrographs (200× magnification) depicting a population of rhodamine B-containing chemically cross-linked elastomeric microcapsules one hour and one year after manufacturing. […] In Particular:
Elastomer-Permeable Therapeutic Agent Microencapsulation. Rhodamine dye was encapsulated within chemically cross-linked poly(dimethyl siloxane) microcapsules utilizing the hydrophilic agent encapsulation methods at low concentrations due to the hydrophilicity of the aqueous solution. However, rhodamine is hydrophobic and permeates vulcanized poly(dimethyl siloxane) in the same fashion as a hydrophobic therapeutic agent. The resultant population of microspheres was sieved and re-suspended in a dilute aqueous poly(vinyl alcohol) solution. Upon resuspension in the rhodamine-free aqueous solution, a series of fluorescence photomicrographs were obtained.
To further investigate the shell-permeability and partition coefficient of the rhodamine within chemically cross-linked elastomeric microcapsules samples of the population of microcapsules that was tested for release were imaged by confocal microscopy.

## CCN(CC)c1ccc2c(-c3ccccc3C(=O)O)c3ccc(=[N+](CC)CC)cc-3oc2c1 [Rhodamine dye, rhodamine B]
Rhodamine in aqueous cores of cross-linked poly(dimethyl siloxane) microcapsules, in dilute aqueous poly(vinyl alcohol), unstirred at room temperature
  extended release of a model therapeutic (duration): greater than one year
Upon resuspension in rhodamine-free aqueous solution
  burst effect: No burst effect was observed

Source: patent US20080175918A1, “CHEMICALLY CROSS-LINKED ELASTOMERIC MICROCAPSULES” (priority 2005, published 2008)
